The text below walks through data of US20110207726A1, “Inhibitors of Human Cathepsin L, Cathepsin B, and Cathepsin S” (The Trustees of the University of Pennsylvania, priority 2008, published 2011).

The structures appear in SMILES notation. Where two headings read alike, the source gives them in different places.

The assay addresses T1, Human spleen cathepsin S (Homo sapiens, UniProt P25774).
T1 construct: Human spleen cathepsin S (Calbiochem 219344, 40 ng/mL); purchased Calbiochem 219344; host or cells: human spleen
In words: Cathepsin S assay, IC50 determination. It is filed as biochemical. In outline:
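Spleen cathepsin S (40 ng/mL) with 15 microM Z-Phe-Arg-AMC and liver cathepsin B (65 ng/mL) with 15 microM Z-Arg-Arg-AMC, in 20 mM sodium acetate, 1 mM EDTA, 5 mM cysteine, pH 5.5. AMC fluorescence release monitored; IC50 measured in triplicate.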

T1 sequence (P25774 115-331): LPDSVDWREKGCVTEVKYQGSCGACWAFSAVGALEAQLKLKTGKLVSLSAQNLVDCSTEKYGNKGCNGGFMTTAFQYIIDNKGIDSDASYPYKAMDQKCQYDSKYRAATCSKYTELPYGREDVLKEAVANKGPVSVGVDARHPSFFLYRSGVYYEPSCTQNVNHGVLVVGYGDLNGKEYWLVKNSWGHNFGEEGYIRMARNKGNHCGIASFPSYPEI

For the molecule `CCc1ccccc1NC(=O)CSC(=O)NNC(=O)[C@H](Cc1c[nH]c2ccccc12)NC(=O)OC(C)(C)C` [Compound No. 1], under “Cathepsin S vs cathepsin L, 10 min”, the “Selectivity Index @ 10 min” value is reported as 7. Also, the “Selectivity Index @ 30 min” value (Cathepsin S vs cathepsin L, 30 min) came to 10. The “Selectivity Index @ 60 min” value (Cathepsin S vs cathepsin L, 60 min) turned out to be 13. Also, for the setting “Cathepsin S vs cathepsin L, 90 min”, the “Selectivity Index @ 90 min” value turned out to be 14. Where the note is “Cathepsin S vs cathepsin L, over 10-90 min”, the “Selectivity Index” value is 7-14. Also, the IC50 by setting is: (Cathepsin S, no preincubation, 30 min, read-out: IC50 @ 30 min) 745 ± 10 nM; (Cathepsin S, no preincubation, 60 min, read-out: IC50 @ 60 min) 724 ± 11 nM; (Cathepsin S, no preincubation, 90 min, read-out: IC50 @ 90 min) 721 ± 29 nM; (IC50 @ 10 min, Cathepsin S, human spleen, no preincubation, 10 min) 1110 ± 134 nM; (Table 1, read-out: IC50 Cat S) 960 nM.
